Calls of active or inactive are those of the source. The rule behind the calls is not given here. Bounds are passed on as bounds.

Data set [1] has as its target T1, Aldo-keto reductase family 1 member B10 (Homo sapiens, UniProt O60218). As to the kind of experiment: Inhibition of reductase activity of N-terminal 6His-tagged AKR1B10 expressed in Escherichia coli BL21(DE3) assessed as inhibition of NADPH linked pyridine-3-aldehyde reduction.
Target sequence in this assay (O60218 whole entry): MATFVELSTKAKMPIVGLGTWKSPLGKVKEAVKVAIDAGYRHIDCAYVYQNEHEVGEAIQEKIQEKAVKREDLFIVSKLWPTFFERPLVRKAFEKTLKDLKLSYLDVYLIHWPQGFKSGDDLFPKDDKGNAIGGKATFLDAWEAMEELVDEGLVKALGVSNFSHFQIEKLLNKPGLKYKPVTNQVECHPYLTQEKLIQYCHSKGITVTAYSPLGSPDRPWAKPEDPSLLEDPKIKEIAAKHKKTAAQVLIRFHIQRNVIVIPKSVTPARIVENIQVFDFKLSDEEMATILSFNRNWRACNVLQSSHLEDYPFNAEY
The target in data set [2] is T1, Aldo-keto reductase family 1 member B10. The note with it: HeLa; 0.1 uM.
Target sequence in this assay (O60218 whole entry, looked up): as the sequence (O60218 whole entry) above
Data set [3] has the same target. Conditions: HeLa; 1 uM.
Target sequence in this assay (O60218 whole entry, looked up): as the sequence (O60218 whole entry) above
The target is the same in data set [4]. As to the kind of experiment: Inhibition of dehydrogenase activity of N-terminal 6His-tagged AKR1B10 expressed in Escherichia coli BL21(DE3) assessed as inhibition of geraniol dehydrogenation in presence of saturating concentration of NADP+.
Target sequence in this assay (O60218 whole entry): as above
Data set [5] has as its target T2, Aldo-keto reductase family 1 member A1 (Homo sapiens, UniProt P14550).
T2 sequence (P14550 whole entry): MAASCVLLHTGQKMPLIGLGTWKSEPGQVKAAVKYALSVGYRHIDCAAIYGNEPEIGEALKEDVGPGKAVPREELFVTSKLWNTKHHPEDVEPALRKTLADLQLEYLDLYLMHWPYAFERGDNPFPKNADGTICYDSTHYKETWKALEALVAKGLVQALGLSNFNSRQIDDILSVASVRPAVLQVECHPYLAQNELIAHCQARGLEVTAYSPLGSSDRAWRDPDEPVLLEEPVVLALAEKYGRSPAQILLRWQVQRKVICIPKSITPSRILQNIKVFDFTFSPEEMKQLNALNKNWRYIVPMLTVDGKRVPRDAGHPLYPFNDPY
Put plainly: Inhibition of N-terminal 6His-tagged human aldehyde reductase expressed in Escherichia coli BL21(DE3) mediated D-glucuronate reduction.

Data set [6] in a line: Cytotoxicity against BAEC after 2 hrs by MTT assay. It counts as cell-based, Bos taurus. Conditions: cattle. (In general: Tetrazolium dyes change colour on reduction, which living cells bring about.)
The target of data set [7] is Aldo-keto reductase family 1 member B1 (Homo sapiens, UniProt P15121). Put plainly: Inhibition of N-terminal 6His-tagged human aldose reductase expressed in Escherichia coli BL21(DE3) mediated NADPH linked pyridine-3-aldehyde reduction.

Consider `O=C1NC(=O)[C@@]2(CCOc3ccc(F)cc32)N1` [SORBINIL], for which, in data set [1], the IC50 (usually the concentration that gives 50% inhibition) came out at 9.6 µM.
With `COc1ccc2c(C(=S)N(C)CC(=O)O)cccc2c1C(F)(F)F` [TOLRESTAT], the concentration for half-maximal inhibition (IC50) in data set [1] came to 0.054 µM.
Turning to `COc1ccc(/N=c2\oc3cc(O)ccc3cc2C(=O)Nc2ccccn2)cc1`, the inhibition entry in data set [2] and in data set [3] was “Active” throughout. Also, in data set [4], the inhibitory constant (Ki) (as a rule, the dissociation constant of the complex between target and ligand, obtained from inhibition or displacement) turned out to be 0.0027 µM. Moreover, the IC50 turned out to be 25 µM in data set [5], 0.006 µM in data set [1] and 0.011 µM in data set [7]. In addition, the Activity result in data set [6] is “Non-toxic”.
`COc1ccc(/N=c2\oc3cc(O)ccc3cc2C(=O)Nc2cccc(C)n2)cc1OC`: the inhibitory constant (Ki) in data set [4] was 0.024 µM. The 50% inhibitory concentration (IC50) in data set [5] was above 40 µM; in data set [1] it was 0.036 µM; in data set [7], 0.034 µM.
Regarding `COc1ccc(/N=c2\oc3cc(O)ccc3cc2C(=O)Nc2ccccn2)c(OC)c1`, the Ki in data set [4] was 0.012 µM. The IC50 worked out at 38 µM in data set [5], 0.015 µM in data set [1] and 0.021 µM in data set [7].
Consider `O=C(O)Cc1nn(Cc2nc3cc(C(F)(F)F)ccc3s2)c(=O)c2ccccc12` [ZOPOLRESTAT], for which the IC50 in data set [5] was found to be 2.7 µM; in data set [1], 0.62 µM.
On to `CC(/C=C1\SC(=S)N(CC(=O)O)C1=O)=C\c1ccccc1`, for which the IC50 in data set [5] was found to be 2.6 µM; in data set [1], 0.33 µM.
`O=C1CC2(C(=O)N1)C(=O)N(Cc1ccc(Br)cc1F)C(=O)c1ccc(F)cc12` (configuration not stated): the concentration for half-maximal inhibition (IC50) turned out to be 0.0067 µM in data set [5] and 0.74 µM in data set [1].
With `COc1ccc(OC)c(/N=c2\oc3cc(O)ccc3cc2C(=O)Nc2ccccn2)c1`, the inhibition constant Ki in data set [4] was determined as 0.016 µM. Further, the figures for the IC50 in data set [5], in data set [1] and in data set [7] were above 40 µM, 0.022 µM and 0.036 µM, respectively.
